PubChem BioAssay AID1963851 (Molecular Pharmacology Branch, DTP, NCI, 2024)

System: 188146-221-R-J1-PDC complex spheroid viability
Assay: Anticancer human tumor 188146-221-R-J1-PDC patient-derived colon adenocarcinoma cell line growth inhibition [POLQ]
Conditions: for IC50: curve of first compound; for viability, T/C: stronger effect = lower value
Method in brief: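 PDC + HUVEC + MSC complex spheroids; POLQ inhibitors ± partner drugs; top conc. at/near clinical Cmax, else 10 microM (SN-38 1 microM), half-log dilutions; 37 degrees C, 5% CO2.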

[1] = second compound 0.0316 µM, first compound 0.0316 µM
[2] = second compound 0.0316 µM, first compound 0.1 µM
[3] = second compound 0.0316 µM, first compound 0.316 µM
[4] = second compound 0.0316 µM, first compound 1 µM
[5] = second compound 0.0316 µM, first compound 3.16 µM
[6] = second compound 0.0316 µM, first compound 10 µM
[7] = second compound 0.1 µM, first compound 0.0316 µM
[8] = second compound 0.1 µM, first compound 0.1 µM
[9] = second compound 0.1 µM, first compound 0.316 µM
[10] = second compound 0.1 µM, first compound 1 µM
[11] = second compound 0.1 µM, first compound 3.16 µM
[12] = second compound 0.1 µM, first compound 10 µM
[13] = second compound 0.316 µM, first compound 0.0316 µM
[14] = second compound 0.316 µM, first compound 0.1 µM
[15] = second compound 0.316 µM, first compound 0.316 µM
[16] = second compound 0.316 µM, first compound 1 µM
[17] = second compound 0.316 µM, first compound 3.16 µM
[18] = second compound 0.316 µM, first compound 10 µM
[19] = second compound 1 µM, first compound 0.0316 µM
[20] = second compound 1 µM, first compound 0.1 µM
[21] = second compound 1 µM, first compound 0.316 µM
[22] = second compound 1 µM, first compound 1 µM
[23] = second compound 1 µM, first compound 3.16 µM
[24] = second compound 1 µM, first compound 10 µM
[25] = second compound 3.16 µM, first compound 0.0316 µM
[26] = second compound 3.16 µM, first compound 0.1 µM
[27] = second compound 3.16 µM, first compound 0.316 µM
[28] = second compound 3.16 µM, first compound 1 µM
[29] = second compound 3.16 µM, first compound 3.16 µM
[30] = second compound 3.16 µM, first compound 10 µM
[31] = second compound 10 µM, first compound 0.0316 µM
[32] = second compound 10 µM, first compound 0.1 µM
[33] = second compound 10 µM, first compound 0.316 µM
[34] = second compound 10 µM, first compound 1 µM
[35] = second compound 10 µM, first compound 3.16 µM
[36] = second compound 10 µM, first compound 10 µM
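Further: spheroids exposed to compounds for seven days.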
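Wherever viability, T/C is given: 100% = DMSO vehicle control viability.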

## CC(C)n1c(=O)n(C)c2cnc3cc(F)c(-c4ccc(OCCCN5CCCCC5)nc4)cc3c21 + Cc1cccc(N(C)C(=O)C2C(O)CCN2c2nc(C)cc(C(F)(F)F)c2C#N)c1
Second compound 0.0316 µM
  IC50: > 10 µM
Second compound 0.1 µM
  IC50: > 10 µM
Second compound 0.316 µM
  IC50: > 10 µM
Second compound 1 µM
  IC50: > 10 µM
Second compound 3.16 µM
  IC50: > 10 µM
Second compound 10 µM
  IC50: > 10 µM
[1]
  viability, T/C: 110%
[2]
  viability, T/C: 97.9%
[3]
  viability, T/C: 100%
[4]
  viability, T/C: 106%
[5]
  viability, T/C: 102%
[6]
  viability, T/C: 83.7%
[7]
  viability, T/C: 109%
[8]
  viability, T/C: 98.5%
[9]
  viability, T/C: 107%
[10]
  viability, T/C: 113%
[11]
  viability, T/C: 90.5%
[12]
  viability, T/C: 89.1%
[13]
  viability, T/C: 108%
[14]
  viability, T/C: 115%
[15]
  viability, T/C: 98.7%
[16]
  viability, T/C: 100%
[17]
  viability, T/C: 85.4%
[18]
  viability, T/C: 85.9%
[19]
  viability, T/C: 111%
[20]
  viability, T/C: 107%
[21]
  viability, T/C: 104%
[22]
  viability, T/C: 93%
[23]
  viability, T/C: 88.6%
[24]
  viability, T/C: 86.5%
[25]
  viability, T/C: 103%
[26]
  viability, T/C: 104%
[27]
  viability, T/C: 100%
[28]
  viability, T/C: 82%
[29]
  viability, T/C: 99.6%
[30]
  viability, T/C: 81.8%
[31]
  viability, T/C: 91.6%
[32]
  viability, T/C: 85.8%
[33]
  viability, T/C: 101%
[34]
  viability, T/C: 97.4%
[35]
  viability, T/C: 93.7%
[36]
  viability, T/C: 95%

## CCc1cc2c(N3CCc4c(cc(Cn5ccnc5)cc4-c4cn(C)nc4C(F)(F)F)C3=O)ccnc2c(OC)n1 + Cc1cccc(N(C)C(=O)C2C(O)CCN2c2nc(C)cc(C(F)(F)F)c2C#N)c1
Second compound 0.0316 µM
  IC50: 9.01 µM
Second compound 0.1 µM
  IC50: > 10 µM
Second compound 0.316 µM
  IC50: 8.88 µM
Second compound 1 µM
  IC50: 7.87 µM
Second compound 3.16 µM
  IC50: 8.27 µM
Second compound 10 µM
  IC50: 5.92 µM
[1]
  viability, T/C: 90.5%
[2]
  viability, T/C: 92%
[3]
  viability, T/C: 93.5%
[4]
  viability, T/C: 102%
[5]
  viability, T/C: 67.8%
[6]
  viability, T/C: 48.2%
[7]
  viability, T/C: 117%
[8]
  viability, T/C: 78.8%
[9]
  viability, T/C: 97.8%
[10]
  viability, T/C: 90.8%
[11]
  viability, T/C: 77.8%
[12]
  viability, T/C: 49.8%
[13]
  viability, T/C: 107%
[14]
  viability, T/C: 114%
[15]
  viability, T/C: 85.2%
[16]
  viability, T/C: 78.6%
[17]
  viability, T/C: 66.5%
[18]
  viability, T/C: 47.1%
[19]
  viability, T/C: 107%
[20]
  viability, T/C: 98.2%
[21]
  viability, T/C: 91.5%
[22]
  viability, T/C: 105%
[23]
  viability, T/C: 71%
[24]
  viability, T/C: 44.4%
[25]
  viability, T/C: 90.1%
[26]
  viability, T/C: 91.4%
[27]
  viability, T/C: 91.6%
[28]
  viability, T/C: 81.7%
[29]
  viability, T/C: 66.6%
[30]
  viability, T/C: 46.7%
[31]
  viability, T/C: 92.5%
[32]
  viability, T/C: 82.5%
[33]
  viability, T/C: 74.1%
[34]
  viability, T/C: 69.6%
[35]
  viability, T/C: 61.2%
[36]
  viability, T/C: 40.7%

## COc1cc2cc(C(=O)CCC(=O)O)sc2cc1OC + Cc1cccc(N(C)C(=O)C2C(O)CCN2c2nc(C)cc(C(F)(F)F)c2C#N)c1
Second compound 0.0316 µM
  IC50: > 10 µM
Second compound 0.1 µM
  IC50: > 10 µM
Second compound 0.316 µM
  IC50: > 10 µM
Second compound 1 µM
  IC50: > 10 µM
Second compound 3.16 µM
  IC50: > 10 µM
Second compound 10 µM
  IC50: > 10 µM
[1]
  viability, T/C: 95.5%
[2]
  viability, T/C: 109%
[3]
  viability, T/C: 94.2%
[4]
  viability, T/C: 91.3%
[5]
  viability, T/C: 103%
[6]
  viability, T/C: 93.5%
[7]
  viability, T/C: 102%
[8]
  viability, T/C: 100%
[9]
  viability, T/C: 109%
[10]
  viability, T/C: 97.8%
[11]
  viability, T/C: 97.5%
[12]
  viability, T/C: 105%
[13]
  viability, T/C: 95.9%
[14]
  viability, T/C: 98.7%
[15]
  viability, T/C: 93.2%
[16]
  viability, T/C: 94%
[17]
  viability, T/C: 96.1%
[18]
  viability, T/C: 99%
[19]
  viability, T/C: 94.1%
[20]
  viability, T/C: 80.5%
[21]
  viability, T/C: 93.6%
[22]
  viability, T/C: 96.6%
[23]
  viability, T/C: 112%
[24]
  viability, T/C: 92.7%
[25]
  viability, T/C: 100%
[26]
  viability, T/C: 107%
[27]
  viability, T/C: 84.8%
[28]
  viability, T/C: 88.6%
[29]
  viability, T/C: 92.5%
[30]
  viability, T/C: 86.9%
[31]
  viability, T/C: 101%
[32]
  viability, T/C: 96.2%
[33]
  viability, T/C: 92.3%
[34]
  viability, T/C: 88.7%
[35]
  viability, T/C: 88.8%
[36]
  viability, T/C: 103%
